What is called IC50 is the concentration at which inhibition is half-maximal.

Experiment [1] relates to MCF7-R (mammary carcinoma cells 180-fold resistant to adriamycin). Briefly: tumor cell growth inhibition (SRB, 72 h drug exposure). The note with it: for IC50: Table 2. It is filed as cell-based, human. How it is done:
(§1) Lower numbers indicate higher potency. […] The data represent the mean values of at least three separate experiments. Lower numbers indicate greater activity.
(§2) Assessment of cell growth inhibition was determined according to the methods of Skehan et al., J. Nat. Cancer Inst. […] Briefly, cells were plated between 400 and 1200 cells/well in 96 well plates and incubated at 37° C. for 15-18 h prior to drug addition to allow attachment of cells. […] After a 72 h incubation, […] of ice-cold 50% TCA was added to each well and incubated for 1 h at 4° C. Plates were then washed 5 times with tap water to remove TCA, low-molecular-weight metabolites and serum proteins. Sulforhodamine B (SRB) (0.4%, […]) was added to each well. Following a 5 min incubation at room temperature, plates were rinsed 5 times with 0.1% acetic acid and air dried. […] Optical density was measured at 570 nm.

Another experiment relates to MCF7 (mammary carcinoma). The experiment is described as above. It is filed as cell-based, human. As to conditions: Table 2; read-out: MCF7 IC50. As to the method:
as §1, §2

With `CC(=O)OC12COC1CC(O)C1(C)C(=O)C(OC(=O)C3CC3)C3=C(C)C(OC(=O)C(O)C(CC(C)C)NC(=O)OC(C)(C)C)CC(O)(C(OC(=O)c4ccccc4)C21)C3(C)C` (centres unmarked) [Taxoid Ic′, 3′-Dephenyl-3′-(2-methylpropyl)-10-cyclopropanecarbonyldocetaxel], the figures for the IC50 (in experiment [1]; with MCF7 (mammary carcinoma)) were 4.33 nM and 0.51 nM, respectively.

As to `COC(=O)OC1C(=O)C2(C)C(O)CC3OCC3(OC(C)=O)C2C(OC(=O)c2ccccc2)C2(O)CC(OC(=O)C(O)C(CC(C)C)NC(=O)OC(C)(C)C)C(C)=C1C2(C)C` (centres unmarked) [Taxoid If′, 3′-Dephenyl-3′-(2-methylpropyl)-10-methoxycarbonyldocetaxel], the figures for the IC50 (in experiment [1]; in the experiment with MCF7 (mammary carcinoma)) were 6.35 nM and 0.48 nM, respectively.

In the case of `CCC(=O)OC1C(=O)C2(C)C(O)CC3OCC3(OC(C)=O)C2C(OC(=O)c2ccccc2)C2(O)CC(OC(=O)C(O)C(CC(C)C)NC(=O)OC(C)(C)C)C(C)=C1C2(C)C` (centres unmarked) [Taxoid Ib′, 3′-dephenyl-3′-(2-methylpropyl)-10-propanoyldocetaxel], the IC50 in experiment [1] turned out to be 2.84 nM; in the experiment on MCF7 (mammary carcinoma), 0.35 nM.

In the case of `CC(=O)OC12COC1CC(O)C1(C)C(=O)C(OC(=O)N(C)C)C3=C(C)C(OC(=O)C(O)C(CC(C)C)NC(=O)OC(C)(C)C)CC(O)(C(OC(=O)c4ccccc4)C21)C3(C)C` (centres unmarked) [Taxoid Ie′, 3′-Dephenyl-3′-(2-methylpropyl)-10-N,N-dimethylcarbamoyldocetaxel], the concentration for half-maximal inhibition (IC50) in experiment [1] is 5.8 nM; in the experiment on MCF7 (mammary carcinoma), 0.36 nM.

Consider `CC(=O)OC12COC1CC(O)C1(C)C(=O)C(OC(=O)N(C)C)C3=C(C)C(OC(=O)C(O)C(C=C(C)C)NC(=O)OC(C)(C)C)CC(O)(C(OC(=O)c4ccccc4)C21)C3(C)C` (centres unmarked) [Taxoid Ie, 3′-Dephenyl-3′-(2-methyl-1-propenyl)-O-N,N-dimethylcarbamoyldocetaxel], for which the figures for the IC50 (in experiment [1]; in the experiment with MCF7 (mammary carcinoma)) were 4.91 nM and 0.13 nM, respectively.

Regarding `COC(=O)OC1C(=O)C2(C)C(O)CC3OCC3(OC(C)=O)C2C(OC(=O)c2ccccc2)C2(O)CC(OC(=O)C(O)C(C=C(C)C)NC(=O)OC(C)(C)C)C(C)=C1C2(C)C` (centres unmarked) [Taxoid If, 3′-Dephenyl-3′-(2-methyl-1-propenyl)-10-methoxycarbonyldocetaxel], the IC50 in experiment [1] amounted to 5.25 nM; in the experiment with MCF7 (mammary carcinoma), 0.14 nM.

For `CC=CC(=O)OC1C(=O)C2(C)C(O)CC3OCC3(OC(C)=O)C2C(OC(=O)c2ccccc2)C2(O)CC(OC(=O)C(O)C(C=C(C)C)NC(=O)OC(C)(C)C)C(C)=C1C2(C)C` (centres unmarked) [Taxoid Id, 3′-Dephenyl-3′-(2-methyl-1-propenyl)-10-crotonoyldocetaxel], the IC50 in experiment [1] is 3.35 nM; in the experiment on MCF7 (mammary carcinoma), 0.26 nM.

`CC(=O)OC12COC1CC(O)C1(C)C(=O)C(OC(=O)C3CC3)C3=C(C)C(OC(=O)C(O)C(C=C(C)C)NC(=O)OC(C)(C)C)CC(O)(C(OC(=O)c4ccccc4)C21)C3(C)C` (centres unmarked) [Taxoid Ic, 3′-Dephenyl-3′-(2-methyl-1-propenyl)-10-cyclopropanecarbonyldocetaxel]: the “times better activity than paclitaxel and docetaxel against drug-resistant human breast cells” value in experiment [1] (MCF7-R) amounted to 142 times. Moreover, the figures for the IC50 (in experiment [1]; with MCF7 (mammary carcinoma)) were 2.11 nM and 0.2 nM, respectively.

The record behind these values is patent publication US6500858B2, “Taxoid anti-tumor agents and pharmaceutical compositions thereof” (The Research Foundation of the state University of New York, priority 1994, dated 2002).
